Eleven compounds from patent US12006330B2, “Substituted macrocyclic compounds and related methods of treatment” (Alkermes, Inc., priority 2020, dated 2024) can be followed below.

Molecules are shown by their SMILES.

Data set [1] concerns the target T1, human orexin-2 receptor (OX2R) (Homo sapiens, UniProt O43614).
T1 construct: expressed in transfected cells
T1 sequence (O43614 1-444): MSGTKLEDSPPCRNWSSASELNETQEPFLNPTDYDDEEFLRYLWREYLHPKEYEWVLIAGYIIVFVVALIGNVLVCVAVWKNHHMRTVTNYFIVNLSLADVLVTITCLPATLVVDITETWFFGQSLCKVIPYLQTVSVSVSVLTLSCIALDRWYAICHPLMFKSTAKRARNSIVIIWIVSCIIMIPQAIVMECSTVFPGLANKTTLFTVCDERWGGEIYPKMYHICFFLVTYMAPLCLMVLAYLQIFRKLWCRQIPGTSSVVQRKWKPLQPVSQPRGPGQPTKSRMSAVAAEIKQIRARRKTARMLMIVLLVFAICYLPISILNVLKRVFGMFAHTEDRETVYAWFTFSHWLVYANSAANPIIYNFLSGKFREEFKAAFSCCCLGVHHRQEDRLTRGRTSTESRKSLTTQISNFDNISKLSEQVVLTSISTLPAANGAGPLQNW
As to the kind of experiment: Human OX2R IP1 assay. Format: cell-based. As to conditions: T-Rex CHO cells stably overexpressing human OX2R; IP1 accumulation; 1 hr at 37 degrees C; mean EC50. In short, it runs like this: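 T-Rex CHO cells stably expressing human OX2R, doxycycline-induced (1 μg/mL) overnight, treated with compounds 1 h at 37 °C in pH 7.4 buffer with 50 mM LiCl. IP1 accumulation read by HTRF competitive immunoassay after 1 h at room temperature; agonist EC50 reported as mean ± S.E.M.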

Data set [2] can be described thus: Hepatocytes stability assay (human hepatocytes). Format: in vitro ADME. As to conditions: both sexes, human, cryopreserved hepatocytes, cryopreserved human hepatocytes (pool of 50 mixed gender); 1 μM test compound; 1×10^6 cell/mL; 37 degrees C; read-out: CLint (μL/min/million cells). In short, it runs like this:
(§1)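 Compound at 1 μM (0.1% DMSO) was incubated with cryopreserved pooled human hepatocytes, 1×10^6 cells/mL in Krebs-Henseleit buffer, at 37 °C, sampled up to 240 min. Parent depletion by LC-MS/MS; half-life from first-order decay gave CLint, scaled to hepatic clearance by well-stirred model (fu assumed 1) and extraction ratio.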

The next data set deals with human hepatocytes. As to the kind of experiment: Hepatocytes stability assay (human hepatocytes). As to conditions: human hepatocytes; scaled hepatic clearance divided by liver blood flow (well-stirred model, fu assumed unity). Format: in vitro ADME. In short, it runs like this:
as §1

`Cc1ncnc2c1[C@H]1CC[C@H](CC1)OCC1[C@@H](NS(C)(=O)=O)CCCN1C(=O)CO2` (stereo in doubt) [Compound 27] showed an EC50 in data set [1] of less than 10 nM. Further, the hepatocyte CLint at 1 μM in data set [2] is less than 1.9 µL/min/1e6 cells. In addition, in the data set with human hepatocytes, the “Extraction Ratio (ER)” value is less than 0.22.

Turning to `O=C1COc2ncccc2[C@H]2CC[C@H](CC2)OCC2[C@@H](NS(=O)(=O)C(F)(F)F)CCCN12` (stereo in doubt) [Compound 91], the EC50 in data set [1] was less than 10 nM. Moreover, the hepatocyte CLint at 1 μM in data set [2] was 4.8 µL/min/1e6 cells. The “Extraction Ratio (ER)” value in the data set on human hepatocytes is on record as 0.42.

Turning to `Cc1ccnc2c1[C@H]1CC[C@H](CC1)OCC1[C@@H](NS(=O)(=O)C(F)(F)F)CCN1C(=O)CO2` (stereo in doubt) [Compound 94], in data set [1], the concentration for a half-maximal effect (EC50) is less than 10 nM. For the same compound, in data set [2], the hepatocyte CLint at 1 μM is less than 1.9 µL/min/1e6 cells. Also, in the data set with human hepatocytes, the “Extraction Ratio (ER)” value is listed as less than 0.22.

`O=C1COc2cccc(F)c2[C@H]2CC[C@H](CC2)OCC2[C@@H](NS(=O)(=O)C(F)(F)F)CCCN12` (stereo in doubt) [Compound 95] yielded an EC50 in data set [1] of less than 10 nM. Also, the hepatocyte CLint at 1 μM in data set [2] was found to be 3.3 µL/min/1e6 cells. Further, the “Extraction Ratio (ER)” value with human hepatocytes is 0.33.

As for `O=C1COc2nccnc2[C@H]2CC[C@H](CC2)OCC2[C@@H](NS(=O)(=O)C(F)(F)F)CCCN12` (stereo in doubt) [Compound 98], in data set [1], the EC50 was less than 10 nM. The hepatocyte CLint at 1 μM in data set [2] is less than 1.4 µL/min/1e6 cells. In the data set on human hepatocytes, the “Extraction Ratio (ER)” value is on record as less than 0.22.

Consider `Cc1ncnc2c1[C@H]1CC[C@H](CC1)OCC1[C@@H](NS(=O)(=O)C(F)(F)F)CCCN1C(=O)CO2` (stereo in doubt) [Compound 99], for which the EC50 in data set [1] was less than 10 nM. Besides, the hepatocyte CLint at 1 μM in data set [2] was less than 1.4 µL/min/1e6 cells. Further, the “Extraction Ratio (ER)” value with human hepatocytes is given as less than 0.22.

Take `O=C1COc2ccccc2[C@H]2CC[C@H](CC2)OCC2[C@@H](NS(=O)(=O)C(F)(F)F)CCN12` (stereo in doubt) [Compound 100]: the EC50 in data set [1] was less than 10 nM. In addition, the hepatocyte CLint at 1 μM in data set [2] was 2.5 µL/min/1e6 cells. For the same compound, in the data set on human hepatocytes, the “Extraction Ratio (ER)” value is 0.274.

Take `Cc1cccc2c1[C@H]1CC[C@H](CC1)OC[C@H]1[C@@H](NS(C)(=O)=O)CCN1C(=O)CO2` [Compound 20]: the EC50 in data set [1] is less than 10 nM. Besides, the hepatocyte CLint at 1 μM in data set [2] came to 27 µL/min/1e6 cells. In the data set with human hepatocytes, the “Extraction Ratio (ER)” value is 0.80.

In turn, `CC(C)S(=O)(=O)N[C@H]1CCN2C(=O)COc3c(F)cc(F)cc3[C@H]3CC[C@H](CC3)OC[C@@H]12` [Compound 29] gave an EC50 in data set [1] of less than 10 nM. For the same compound, the hepatocyte CLint at 1 μM in data set [2] was found to be 15 µL/min/1e6 cells. The “Extraction Ratio (ER)” value in the data set with human hepatocytes is 0.70.

For `COC(=O)N1CCC[C@H](NS(C)(=O)=O)[C@@H]1CO[C@H]1CC[C@@H](c2ccccc2)CC1` [Reference Compound A, methyl (2R,3S)-3-((methylsulfonyl)amino)-2-(((cis-4-phenylcyclohexyl)oxy)methyl)-piperidine-l-carboxylate, reference compound], the EC50 in data set [1] was less than 10 nM. Also, the hepatocyte CLint at 1 μM in data set [2] is 76 µL/min/1e6 cells. Further, in the data set on human hepatocytes, the “Extraction Ratio (ER)” value came out at 0.92.

In data set [1], `CC(C)(O)C(=O)N1CC[C@H](NS(C)(=O)=O)[C@@H]1Cc1cccc(-c2cc(F)cc(F)c2)c1F` [Reference Compound B, N-((2S,3S)-1-(2-hydroxy-2-methylpropanoy1)-2-((2,3′,5′-trifluorobipheny1-3-yl)methyl)pyrrolidin-3-yl)methanesulfonamide, reference compound] registered a half-maximal effective concentration (EC50) of 10 to 1000 nM. Further, the hepatocyte CLint at 1 μM in data set [2] came out at 1.5 µL/min/1e6 cells. Also, in the data set with human hepatocytes, the “Extraction Ratio (ER)” value was found to be 0.19.
